Measured values reported in ChEMBL document CHEMBL1201862, “PubChem BioAssay data set” (2004).
“And” between values parts separate entries of the source, which are not always exact repeats. Equal values may be shown once.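 Test compounds were applied to cells in 96-well plates for 48 hours at 5 doses. Abbreviation: GI50, concentration required for 50% inhibition of growth.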 The source made the active and inactive calls. Rule as the data show it: active = GI50 up to about 1.1 µM and inactive = higher.

Columns and labels:
Experiment in all cases: growth of human tumour cells (NCI), 48 h
EKVX = test system: EKVX
COLO 205 = test system: COLO 205
OVCAR-3 = test system: OVCAR-3
OVCAR-4 = test system: OVCAR-4
NCI/ADR-RES = test system: NCI/ADR-RES
KM12 = test system: KM12
A498 = test system: A498
SK-MEL-28 = test system: SK-MEL-28
786-0 = test system: 786-0
SW-620 = test system: SW-620
T47D = test system: T47D
SF-295 = test system: SF-295
IGROV-1 = test system: IGROV-1
TK-10 = test system: TK-10
ACHN = test system: ACHN
DU-145 = test system: DU-145
MDA-N = test system: MDA-N
UO-31 = test system: UO-31
HCC 2998 = test system: HCC 2998

Measured: GI50

CCON=C1C(C)(C)C(C)(C)C(C)(C)C1(C)C
inactive: EKVX > 100 µM | COLO 205 > 100 µM | OVCAR-3 > 100 µM | OVCAR-4 > 100 µM | NCI/ADR-RES > 100 µM | KM12 > 100 µM | A498 > 100 µM | SK-MEL-28 > 100 µM | 786-0 > 100 µM | SW-620 > 100 µM | T47D > 100 µM | SF-295 > 100 µM | IGROV-1 > 100 µM | TK-10 > 100 µM | ACHN > 100 µM | DU-145 > 100 µM | MDA-N > 100 µM

CC[N+](C)(CC)CCN1C(=O)c2ccccc2S1(=O)=O
inactive: UO-31 > 100 µM | EKVX > 100 µM | COLO 205 > 100 µM | OVCAR-3 > 100 µM | OVCAR-4 > 100 µM | NCI/ADR-RES > 100 µM | KM12 > 100 µM | A498 > 100 µM | SK-MEL-28 > 100 µM | 786-0 > 100 µM | SW-620 > 100 µM | T47D > 100 µM | SF-295 > 100 µM | IGROV-1 > 100 µM | TK-10 > 100 µM | ACHN > 100 µM | DU-145 > 100 µM

CCOC(=O)CC[C@H](NC(=O)c1ccc(CNc2nc3cc(C(F)(F)F)ccc3nc2C(=O)OCC)cc1)C(=O)OCC
inactive: UO-31 25.2 µM | EKVX 17.3 µM | COLO 205 > 100 µM | OVCAR-3 > 38.8 µM | NCI/ADR-RES 26.5 µM | KM12 52.2 µM | A498 > 100 µM | SK-MEL-28 > 69.8 µM | 786-0 7.19 µM | SW-620 > 61.2 µM | T47D 18.1 µM | SF-295 8.34 µM | IGROV-1 21 µM | TK-10 15.4 µM | ACHN 33.8 µM | DU-145 > 81.8 µM | MDA-N > 100 µM

CCOC(=O)c1c(-c2ccc(OC)cc2)c(C#N)c(=S)n(C2OC(COC(C)=O)C(OC(C)=O)C(OC(C)=O)C2OC(C)=O)c1-c1ccccc1 (centres undefined)
inactive: UO-31 > 100 µM | OVCAR-3 > 100 µM | OVCAR-4 > 100 µM | NCI/ADR-RES > 100 µM | KM12 > 100 µM | SK-MEL-28 > 100 µM | 786-0 > 100 µM | SW-620 > 100 µM | T47D > 100 µM | SF-295 > 100 µM | IGROV-1 > 100 µM | TK-10 > 100 µM | ACHN > 100 µM | DU-145 > 100 µM | MDA-N > 100 µM | HCC 2998 > 100 µM

COc1cc(C2SCC(=O)N2NC(=O)c2ccc(NC(C)=O)cc2OC)ccc1O (centres undefined)
inactive: UO-31 > 100 µM | EKVX 5.74 µM | COLO 205 > 100 µM | OVCAR-3 > 100 µM | OVCAR-4 > 100 µM | NCI/ADR-RES 96.4 µM | A498 7.59 µM | SK-MEL-28 > 100 µM | 786-0 31.3 µM | SW-620 > 100 µM | T47D 67.1 µM | SF-295 20.5 µM | IGROV-1 58.2 µM | ACHN 63 µM | DU-145 21 µM | MDA-N > 100 µM

O=C(NCc1cccc(C(F)(F)F)c1)c1cc2sccc2nc1C(F)(F)F
inactive: UO-31 > 100 µM | EKVX > 100 µM | COLO 205 > 100 µM | OVCAR-3 83.4 µM | OVCAR-4 32.7 µM | NCI/ADR-RES > 100 µM | KM12 > 100 µM | SK-MEL-28 > 100 µM | 786-0 25.5 µM | SW-620 > 100 µM | T47D > 100 µM | SF-295 46.7 µM | IGROV-1 > 100 µM | TK-10 64 µM | ACHN 38.7 µM | MDA-N > 100 µM

COc1ccc(-c2[nH]c(=O)n(C3OC(CO)C(O)C(O)C3O)c(=O)c2C#N)cc1 (centres undefined)
inactive: UO-31 > 100 µM | EKVX > 100 µM | COLO 205 > 100 µM | OVCAR-3 > 100 µM | OVCAR-4 > 100 µM | NCI/ADR-RES > 100 µM | KM12 > 100 µM | A498 > 100 µM | SK-MEL-28 > 100 µM | 786-0 > 100 µM | SW-620 > 100 µM | T47D > 100 µM | SF-295 > 100 µM | IGROV-1 > 100 µM and 86.1 µM | TK-10 > 100 µM | ACHN > 100 µM | DU-145 > 100 µM | HCC 2998 > 100 µM

S=C1CCSc2c(ccc3ccccc23)N1
inactive: UO-31 > 100 µM | EKVX 77.6 µM | COLO 205 > 100 µM | OVCAR-3 > 100 µM | OVCAR-4 46.7 µM | NCI/ADR-RES > 100 µM | KM12 > 100 µM | SK-MEL-28 > 100 µM | 786-0 > 100 µM | T47D 70.5 µM | SF-295 45.8 µM | IGROV-1 > 100 µM | TK-10 > 100 µM | ACHN > 100 µM | DU-145 > 100 µM | MDA-N > 100 µM

COc1ccc(/C=C2\CSC/C(=C\c3ccc(OC)c(OC)c3OC)C2=O)c(OC)c1OC
inactive: UO-31 > 100 µM | EKVX > 100 µM | COLO 205 37.9 µM | OVCAR-3 52.1 µM | NCI/ADR-RES 23.1 µM | KM12 32.4 µM | SK-MEL-28 28.1 µM | 786-0 22.3 µM | SW-620 20.6 µM | T47D > 100 µM | SF-295 25.4 µM | IGROV-1 37.8 µM | TK-10 31.6 µM | ACHN 16.9 µM | DU-145 > 100 µM | MDA-N 30.3 µM | HCC 2998 > 10 µM

COC(=O)[C@@H](Cc1ccccc1)NNC(=O)OC(C)(C)C
inactive: EKVX > 100 µM | COLO 205 > 100 µM | OVCAR-3 > 100 µM | OVCAR-4 > 100 µM | NCI/ADR-RES > 100 µM | KM12 > 100 µM | A498 > 100 µM | SK-MEL-28 > 100 µM | 786-0 > 100 µM | SW-620 > 100 µM | T47D > 100 µM | SF-295 > 100 µM | IGROV-1 > 100 µM | TK-10 > 100 µM | ACHN > 100 µM | DU-145 > 100 µM | HCC 2998 > 100 µM

CC(C)(CCCCC(C)(C)[N+](C)(C)C)[N+](C)(C)C
inactive: UO-31 > 100 µM | EKVX > 100 µM | COLO 205 > 100 µM | OVCAR-4 > 100 µM | NCI/ADR-RES > 100 µM | SK-MEL-28 > 100 µM | 786-0 > 100 µM | SW-620 > 100 µM | T47D > 100 µM | IGROV-1 > 100 µM | TK-10 > 100 µM | ACHN > 10 µM | MDA-N > 100 µM | HCC 2998 > 100 µM

COC1=CC(=O)C[C@@H](C)[C@]12Oc1c(Cl)c(OC)cc(OC)c1C2=O [GRISEOFULVIN]
inactive: UO-31 43.7 µM | EKVX > 100 µM | COLO 205 9.89 µM | OVCAR-3 37.3 µM | OVCAR-4 38.2 µM | NCI/ADR-RES 12.3 µM | KM12 6.04 µM | A498 > 47.2 µM | SK-MEL-28 99.3 µM | 786-0 50.1 µM | SW-620 7.62 µM | T47D 38.2 µM | SF-295 21.8 µM | IGROV-1 17.4 µM | TK-10 > 85.1 µM | ACHN 67.3 µM | DU-145 39.7 µM | HCC 2998 17.2 µM
